Data on three compounds can be found in ChEMBL document CHEMBL1159198, “Identification of magnolol and honokiol as anxiolytic agents in extracts of saiboku-to, an oriental herbal medicine” (1998).

Assay [1] has as its system Mus musculus. Kind of assay: Anxiolytic activity in ddY mouse assessed as time spent in open-sided arms at 0.49 mg/kg, po administered once daily for 7 days by elevated plus-maze test. It is filed as functional, organism-based. Also noted: dose 0.49 mg/kg.
Assay [2] has as its system Mus musculus. As to the kind of experiment: Anxiolytic activity in ddY mouse assessed as time spent in open-sided arms at 1 mg/kg, po administered once daily for 1 day by elevated plus-maze test. Format: functional.
Assay [3] concerns Mus musculus. As to the kind of experiment: Anxiolytic activity in ddY mouse assessed as time spent in open-sided arms at 0.19 mg/kg, po administered once daily for 1 day by elevated plus-maze test. Format: functional.
Assay [4] has as its system Mus musculus. Kind of assay: Anxiolytic activity in ddY mouse assessed as time spent in open-sided arms at 0.19 mg/kg, po administered once daily for 3 days by elevated plus-maze test. Format: functional.
The subject of assay [5] is Mus musculus. As to the kind of experiment: Anxiolytic activity in ddY mouse assessed as time spent in open-sided arms at 0.19 mg/kg, po administered once daily for 5 days by elevated plus-maze test. Format: functional.
Assay [6] relates to Mus musculus. As to the kind of experiment: Anxiolytic activity in ddY mouse assessed as time spent in open-sided arms at 0.19 mg/kg, po administered once daily for 7 days by elevated plus-maze test. Format: functional.
Assay [7] has as its system Mus musculus. As to the kind of experiment: Anxiolytic activity in ddY mouse assessed as time spent in open-sided arms at 0.19 mg/kg, po administered once daily for 14 days by elevated plus-maze test. It is filed as functional.

Each structure is given as a SMILES string. Calls of active or inactive are those of the source. No cut-off for these calls is given here.

With `C=CCc1ccc(O)c(-c2cc(CC=C)ccc2O)c1`, the outcome in assay [1] was Active.

With `CN1C(=O)CN=C(c2ccccc2)c2cc(Cl)ccc21` [DIAZEPAM], the Time in assay [2] is listed as 22.1 s.

Regarding `C=CCc1ccc(O)c(-c2ccc(O)c(CC=C)c2)c1` [HONOKIOL], the Time in assay [3] was found to be 3.7 s; in assay [4], 4 s; in assay [5], 9.1 s; in assay [6], 10.9 s; in assay [7] it was 12.3 s. Also, the result in assay [1] was Active.
